Key:
LB373-MEL-D = assay: cells; type: functional, cell-based, Homo sapiens; conditions: Homo sapiens, LB373-MEL-D;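 note: growth inhibition of the cell line, read out in a cell viability assay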
Description: SANGER: Inhibition of human LB373-MEL-D cell growth in a cell viability assay.

NCI-H1436 = assay: cells; type: functional, cell-based, Homo sapiens; conditions: Homo sapiens, NCI-H1436;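 note: growth suppression of human NCI-H1436 cells, determined with a cell viability readout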
Description: SANGER: Inhibition of human NCI-H1436 cell growth in a cell viability assay.

SR = assay: cells; type: functional, cell-based, Homo sapiens; conditions: Homo sapiens, SR
Description: SANGER: Inhibition of human SR cell growth in a cell viability assay.

NB7 = assay: cells; type: functional, cell-based, Homo sapiens; conditions: Homo sapiens, NB7;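 note: growth inhibition of NB7 cells, read out with a cell viability assay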
Description: SANGER: Inhibition of human NB7 cell growth in a cell viability assay.

NCI-H1882 = assay: cells; type: functional, cell-based, Homo sapiens; conditions: Homo sapiens, NCI-H1882;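 note: growth inhibition of the cell line, determined with a viability assay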
Description: SANGER: Inhibition of human NCI-H1882 cell growth in a cell viability assay.

LB647-SCLC = assay: cells; type: functional, cell-based, Homo sapiens; conditions: Homo sapiens, LB647-SCLC;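 note: cell growth inhibition, read out by a viability assay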
Description: SANGER: Inhibition of human LB647-SCLC cell growth in a cell viability assay.

ST486 = assay: SANGER: Inhibition of human ST486 cell growth in a cell viability assay.; type: functional, cell-based; conditions: Homo sapiens, ST486
NCI-H1522 = assay: cells; type: functional, cell-based, Homo sapiens; conditions: Homo sapiens, NCI-H1522;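 note: growth inhibition of NCI-H1522 cells, read out with a cell viability assay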
Description: SANGER: Inhibition of human NCI-H1522 cell growth in a cell viability assay.

EW-24 = assay: cells; type: functional, cell-based, Homo sapiens; conditions: Homo sapiens, EW-24;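 note: human EW-24 cancer cell line, growth inhibition read out via a cell viability assay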
Description: SANGER: Inhibition of human EW-24 cell growth in a cell viability assay.

CESS = assay: SANGER: Inhibition of human CESS cell growth in a cell viability assay.; type: functional, cell-based; conditions: Homo sapiens, CESS
BL-70 = assay: SANGER: Inhibition of human BL-70 cell growth in a cell viability assay.; type: functional, cell-based; conditions: Homo sapiens, BL-70
MOLT-13 = assay: cells; type: functional, cell-based; conditions: Homo sapiens;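 note: IC50 for suppression of MOLT-13 cell growth, read out with a cell viability assay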
Description: SANGER: Inhibition of human MOLT-13 cell growth in a cell viability assay.

IST-SL2 = assay: cells; type: functional, cell-based, Homo sapiens; conditions: Homo sapiens, IST-SL2;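 note: growth inhibition of human IST-SL2 cells, read out by a cell viability assay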
Description: SANGER: Inhibition of human IST-SL2 cell growth in a cell viability assay.

NCI-H2141 = assay: cells; type: functional, cell-based, Homo sapiens; conditions: Homo sapiens, NCI-H2141;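 note: growth inhibition of human NCI-H2141 cells, read out with a cell viability assay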
Description: SANGER: Inhibition of human NCI-H2141 cell growth in a cell viability assay.

NCI-H322M = assay: cells; type: functional, cell-based, Homo sapiens; conditions: Homo sapiens, NCI-H322M;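 note: cell viability assay measuring inhibition of growth of human NCI-H322M cells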
Description: SANGER: Inhibition of human NCI-H322M cell growth in a cell viability assay.

KARPAS-422 = assay: cells; type: functional, cell-based, Homo sapiens; conditions: Homo sapiens, KARPAS-422
Description: SANGER: Inhibition of human KARPAS-422 cell growth in a cell viability assay.

NCI-H187 = assay: cells; type: functional, cell-based, Homo sapiens; conditions: Homo sapiens, NCI-H187;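 note: growth inhibition of NCI-H187 cells, read out as cell viability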
Description: SANGER: Inhibition of human NCI-H187 cell growth in a cell viability assay.

K052 = assay: cells; type: functional, cell-based, Homo sapiens; conditions: Homo sapiens, K052;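 note: Read-out from a cell viability assay, IC50 reflecting suppression of K052 cell growth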
Description: SANGER: Inhibition of human K052 cell growth in a cell viability assay.

769-P = assay: cells; type: functional, cell-based; conditions: Homo sapiens
Description: SANGER: Inhibition of human 769-P cell growth in a cell viability assay.

647-V = assay: cells; type: functional, cell-based; conditions: Homo sapiens;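 note: growth inhibition of 647-V cells, read out with a cell viability assay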
Description: SANGER: Inhibition of human 647-V cell growth in a cell viability assay.

A204 = assay: cells; type: functional, cell-based; conditions: Homo sapiens;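 note: growth inhibition of human A204 cells, read out with a cell viability assay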
Description: SANGER: Inhibition of human A204 cell growth in a cell viability assay.

Ca-Ski = assay: cells; type: functional, cell-based; conditions: Homo sapiens;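 note: cell viability assay measuring inhibition of Ca-Ski cell growth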
Description: SANGER: Inhibition of human Ca-Ski cell growth in a cell viability assay.

PC-3 = assay: cells; type: functional, cell-based; conditions: Homo sapiens;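 note: cell viability assay measuring growth inhibition of PC-3 cells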
Description: SANGER: Inhibition of human PC-3 cell growth in a cell viability assay.

CaR-1 = assay: cells; type: functional, cell-based; conditions: Homo sapiens;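 note: growth inhibition of human CaR-1 cancer cells, read out with a cell viability assay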
Description: SANGER: Inhibition of human CaR-1 cell growth in a cell viability assay.

DK-MG = assay: cells; type: functional, cell-based; conditions: Homo sapiens;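 note: growth inhibition of DK-MG cells, read out with a cell viability assay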
Description: SANGER: Inhibition of human DK-MG cell growth in a cell viability assay.

A-431 = assay: cells; type: functional, cell-based; conditions: Homo sapiens;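 note: growth inhibition of A-431 cells, determined with a cell viability read-out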
Description: SANGER: Inhibition of human A431 cell growth in a cell viability assay.

NCI-H661 = assay: cells; type: functional, cell-based; conditions: Homo sapiens;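 note: cell viability assay read-out, IC50 being the concentration that inhibits growth of the cells by half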
Description: SANGER: Inhibition of human NCI-H661 cell growth in a cell viability assay.

CAL-120 = assay: cells; type: functional, cell-based; conditions: Homo sapiens;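 note: cell growth inhibition, read out as cell viability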
Description: SANGER: Inhibition of human CAL-120 cell growth in a cell viability assay.

VM-CUB-1 = assay: cells; type: functional, cell-based; conditions: Homo sapiens;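 note: cell viability assay measuring growth inhibition of the human VM-CUB-1 cell line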
Description: SANGER: Inhibition of human VM-CUB-1 cell growth in a cell viability assay.

SW1783 = assay: cells; type: functional, cell-based; conditions: Homo sapiens
Description: SANGER: Inhibition of human SW1783 cell growth in a cell viability assay.

HT1197 = assay: cells; type: functional, cell-based, HT-1197; conditions: Homo sapiens
Description: SANGER: Inhibition of human HT-1197 cell growth in a cell viability assay.

IGROV-1 = assay: cells; type: functional, cell-based; conditions: Homo sapiens;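 note: reduction of IGROV-1 cell growth, read out with a viability assay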
Description: SANGER: Inhibition of human IGROV-1 cell growth in a cell viability assay.

SW756 = assay: cells; type: functional, cell-based; conditions: Homo sapiens;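 note: growth inhibition of human SW756 cells, read out with a cell viability assay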
Description: SANGER: Inhibition of human SW756 cell growth in a cell viability assay.

KYSE-140 = assay: cells; type: functional, cell-based; conditions: Homo sapiens;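 note: cell viability assay measuring growth inhibition in human KYSE-140 cells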
Description: SANGER: Inhibition of human KYSE-140 cell growth in a cell viability assay.

RVH-421 = assay: cells; type: functional, cell-based; conditions: Homo sapiens
Description: SANGER: Inhibition of human RVH-421 cell growth in a cell viability assay.

HGC-27 = assay: cells; type: functional, cell-based; conditions: Homo sapiens;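 note: growth inhibition of human HGC-27 cells, read out in a cell viability assay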
Description: SANGER: Inhibition of human HGC-27 cell growth in a cell viability assay.

A-375 = assay: cells; type: functional, cell-based; conditions: Homo sapiens;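 note: growth inhibition of A375 cells, read out with a cell viability assay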
Description: SANGER: Inhibition of human A375 cell growth in a cell viability assay.

NCI-H2170 = assay: cells; type: functional, cell-based; conditions: Homo sapiens;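 note: cell viability assay measuring growth inhibition of human NCI-H2170 cancer cells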
Description: SANGER: Inhibition of human NCI-H2170 cell growth in a cell viability assay.

AN3-CA = assay: cells; type: functional, cell-based; conditions: Homo sapiens;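 note: growth inhibition of human AN3-CA cells measured by a cell viability assay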
Description: SANGER: Inhibition of human AN3-CA cell growth in a cell viability assay.

NCI-H2052 = assay: cells; type: functional, cell-based; conditions: Homo sapiens;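 note: growth inhibition of NCI-H2052 cells, read out with a cell viability assay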
Description: SANGER: Inhibition of human NCI-H2052 cell growth in a cell viability assay.

CAL-33 = assay: cells; type: functional, cell-based; conditions: Homo sapiens;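 note: growth inhibition of CAL-33 cells, read out with a cell viability assay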
Description: SANGER: Inhibition of human CAL-33 cell growth in a cell viability assay.

639-V = assay: cells; type: functional, cell-based; conditions: Homo sapiens;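 note: growth inhibition of 639-V cells, read out with a cell viability assay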
Description: SANGER: Inhibition of human 639-V cell growth in a cell viability assay.

SK-HEP1 = assay: cells; type: functional, cell-based, SK-HEP-1; conditions: Homo sapiens;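 note: cell viability readout used to quantify reduction in proliferation of human SK-HEP-1 cells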
Description: SANGER: Inhibition of human SK-HEP-1 cell growth in a cell viability assay.

C-33-A = assay: cells; type: functional, cell-based; conditions: Homo sapiens;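 note: cell viability assay measuring growth inhibition of C-33-A cells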
Description: SANGER: Inhibition of human C-33-A cell growth in a cell viability assay.

NCI-H596 = assay: cells; type: functional, cell-based; conditions: Homo sapiens;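 note: growth inhibition of NCI-H596 cells, read out with a cell viability assay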
Description: SANGER: Inhibition of human NCI-H596 cell growth in a cell viability assay.

SK-MEL-30 = assay: cells; type: functional, cell-based; conditions: Homo sapiens;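 note: growth inhibition of SK-MEL-30 cells, determined with a cell viability assay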
Description: SANGER: Inhibition of human SK-MEL-30 cell growth in a cell viability assay.

8505C = assay: cells; type: functional, cell-based; conditions: Homo sapiens
Description: SANGER: Inhibition of human 8505C cell growth in a cell viability assay.

SW48 = assay: cells; type: functional, cell-based; conditions: Homo sapiens;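 note: growth inhibition of SW48 cells, read out with a cell viability assay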
Description: SANGER: Inhibition of human SW48 cell growth in a cell viability assay.

SW780 = assay: cells; type: functional, cell-based; conditions: Homo sapiens;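 note: growth inhibition of the cells, read out with a cell viability assay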
Description: SANGER: Inhibition of human SW780 cell growth in a cell viability assay.

SBC-5 = assay: cells; type: functional, cell-based; conditions: Homo sapiens;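 note: cell viability assay read-out, IC50 is the concentration that inhibits growth of the cells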
Description: SANGER: Inhibition of human SBC-5 cell growth in a cell viability assay.

DMS-273 = assay: cells; type: functional, cell-based; conditions: Homo sapiens
Description: SANGER: Inhibition of human DMS-273 cell growth in a cell viability assay.

SAOS-2 = assay: cells; type: functional, cell-based; conditions: Homo sapiens;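 note: growth inhibition of human Saos-2 cells determined by a cell viability assay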
Description: SANGER: Inhibition of human Saos-2 cell growth in a cell viability assay.

HT-1376 = assay: cells; type: functional, cell-based; conditions: Homo sapiens
Description: SANGER: Inhibition of human HT-1376 cell growth in a cell viability assay.

SK-OV-3 = assay: cells; type: functional, cell-based; conditions: Homo sapiens;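 note: growth inhibition of SK-OV-3 human cells, read out with a cell viability assay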
Description: SANGER: Inhibition of human SK-OV-3 cell growth in a cell viability assay.

HCC1954 = assay: cells; type: functional, cell-based; conditions: Homo sapiens;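 note: growth inhibition of human HCC1954 cells, read out with a cell viability assay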
Description: SANGER: Inhibition of human HCC1954 cell growth in a cell viability assay.

HCC1395 = assay: cells; type: functional, cell-based; conditions: Homo sapiens;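 note: growth inhibition of HCC1395 cells, read out by a cell viability assay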
Description: SANGER: Inhibition of human HCC1395 cell growth in a cell viability assay.

SK-MEL3 = assay: cells; type: functional, cell-based, SK-MEL-3; conditions: Homo sapiens;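 note: growth inhibition of human SK-MEL-3 cells, read out with a cell viability assay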
Description: SANGER: Inhibition of human SK-MEL-3 cell growth in a cell viability assay.

Q: With Nc1ccccc1NC(=O)c1ccc(CNC(=O)OCc2cccnc2)cc1 [ENTINOSTAT] as the compound, how does the IC50 (LB373-MEL-D) read?
A: The IC50 was 2.27 µM.

Q: And the IC50 (NCI-H1436)?
A: Its IC50 is 4.18 µM.

Q: What about the IC50 (SR) of the same compound?
A: Its IC50 is 0.343 µM.

Q: And the IC50 (NB7)?
A: The IC50 was over 5 µM.

Q: And the IC50 (NCI-H1882)?
A: Its IC50 is 2.68 µM.

Q: And the IC50 (LB647-SCLC)?
A: The IC50 was 0.367 µM.

Q: What about the IC50 (ST486) of the same compound?
A: The IC50 was 0.879 µM.

Q: What about the IC50 (NCI-H1522) of the same compound?
A: Its IC50 is 2.22 µM.

Q: What about the IC50 (EW-24) of the same compound?
A: Its IC50 is over 5 µM.

Q: What about the IC50 (CESS) of the same compound?
A: Its IC50 is 0.812 µM.

Q: What about the IC50 (BL-70) of the same compound?
A: Its IC50 is 0.857 µM.

Q: And the IC50 (MOLT-13)?
A: The IC50 was 0.338 µM.

Q: What about the IC50 (IST-SL2) of the same compound?
A: Its IC50 is 2 µM.

Q: And the IC50 (NCI-H2141)?
A: Its IC50 is 3.17 µM.

Q: And the IC50 (NCI-H322M)?
A: Its IC50 is over 5 µM.

Q: What about the IC50 (KARPAS-422) of the same compound?
A: Its IC50 is 1.45 µM.

Q: And the IC50 (NCI-H187)?
A: The IC50 was 0.492 µM.

Q: Which results are given for COc1cc(N2CCC(N3CCN(C)CC3)CC2)ccc1Nc1ncc(Cl)c(Nc2ccccc2S(=O)(=O)C(C)C)n1 [TAE-684]?
A: IC50 (LB373-MEL-D): > 2 µM; IC50 (NCI-H1436): > 2 µM; IC50 (SR): 0.00277 µM; IC50 (NB7): > 2 µM; IC50 (NCI-H1882): 1.24 µM; IC50 (LB647-SCLC): 1.35 µM; IC50 (K052): > 2 µM; IC50 (ST486): > 2 µM; IC50 (NCI-H1522): > 2 µM; IC50 (EW-24): > 2 µM; IC50 (CESS): > 2 µM; IC50 (BL-70): 0.995 µM; IC50 (IST-SL2): > 2 µM; IC50 (NCI-H2141): > 2 µM; IC50 (NCI-H322M): > 2 µM; IC50 (KARPAS-422): 1.1 µM; IC50 (NCI-H187): 1.7 µM

Q: How did the IC50 (769-P) turn out when CN(C)CCOc1ccc(-c2nc(-c3ccncc3)c(-c3ccc4c(c3)CC/C4=N\O)[nH]2)cc1 [SB590885] was run?
A: The IC50 was over 5 µM.

Q: And the IC50 (647-V)?
A: The IC50 was over 5 µM.

Q: And the IC50 (A204)?
A: Its IC50 is over 5 µM.

Q: What about the IC50 (Ca-Ski) of the same compound?
A: Its IC50 is over 5 µM.

Q: What about the IC50 (PC-3) of the same compound?
A: Its IC50 is over 5 µM.

Q: And the IC50 (NB7)?
A: The IC50 was over 5 µM.

Q: What about the IC50 (CaR-1) of the same compound?
A: The IC50 was over 5 µM.

Q: What about the IC50 (DK-MG) of the same compound?
A: The IC50 was over 5 µM.

Q: What about the IC50 (A-431) of the same compound?
A: The IC50 was over 5 µM.

Q: What about the IC50 (NCI-H661) of the same compound?
A: Its IC50 is over 5 µM.

Q: What about the IC50 (CAL-120) of the same compound?
A: Its IC50 is over 5 µM.

Q: What about the IC50 (VM-CUB-1) of the same compound?
A: Its IC50 is over 5 µM.

Q: And the IC50 (SW1783)?
A: The IC50 was over 5 µM.

Q: What about the IC50 (HT1197) of the same compound?
A: The IC50 was over 5 µM.

Q: What about the IC50 (IGROV-1) of the same compound?
A: The IC50 was over 5 µM.

Q: And the IC50 (SW756)?
A: The IC50 was over 5 µM.

Q: And the IC50 (KYSE-140)?
A: The IC50 was over 5 µM.

Q: What about the IC50 (RVH-421) of the same compound?
A: Its IC50 is 0.621 µM.

Q: What about the IC50 (HGC-27) of the same compound?
A: Its IC50 is over 5 µM.

Q: And the IC50 (A-375)?
A: The IC50 was 0.282 µM.

Q: And the IC50 (NCI-H2170)?
A: Its IC50 is over 5 µM.

Q: And the IC50 (AN3-CA)?
A: The IC50 was over 5 µM.

Q: What about the IC50 (NCI-H2052) of the same compound?
A: Its IC50 is over 5 µM.

Q: And the IC50 (CAL-33)?
A: The IC50 was over 5 µM.

Q: And the IC50 (639-V)?
A: Its IC50 is over 5 µM.

Q: What about the IC50 (MOLT-13) of the same compound?
A: The IC50 was over 5 µM.

Q: What about the IC50 (SK-HEP1) of the same compound?
A: Its IC50 is over 5 µM.

Q: And the IC50 (C-33-A)?
A: The IC50 was over 5 µM.

Q: And the IC50 (NCI-H596)?
A: The IC50 was over 5 µM.

Q: And the IC50 (SK-MEL-30)?
A: Its IC50 is 1.55 µM.

Q: What about the IC50 (8505C) of the same compound?
A: The IC50 was over 5 µM.

Q: What about the IC50 (SW48) of the same compound?
A: The IC50 was over 5 µM.

Q: What about the IC50 (SW780) of the same compound?
A: Its IC50 is over 5 µM.

Q: What about the IC50 (SBC-5) of the same compound?
A: The IC50 was over 5 µM.

Q: And the IC50 (DMS-273)?
A: Its IC50 is over 5 µM.

Q: What about the IC50 (SAOS-2) of the same compound?
A: Its IC50 is over 5 µM.

Q: And the IC50 (HT-1376)?
A: The IC50 was over 5 µM.

Q: What about the IC50 (SK-OV-3) of the same compound?
A: The IC50 was over 5 µM.

Q: And the IC50 (HCC1954)?
A: The IC50 was over 5 µM.

Q: What about the IC50 (HCC1395) of the same compound?
A: The IC50 was over 5 µM.

Q: And the IC50 (SK-MEL3)?
A: Its IC50 is 0.818 µM.
